The values below come from patent publication US8404665B2, “In vivo use of glutathione S-transferase activated nitric oxide donors” (University of Utah Research Foundation, priority 2002, dated 2013).

For series [1], the system named is 58 human cancer cell lines. In kind it is cell-based. On the procedure:
Anticancer screen of JS-K against the NCI 58 human cancer cell lines. Cells initially maintained in multiple T150 tissue-culture flasks were detached from the flasks by addition of 2-3 ml of 0.05% trypsin-EDTA when cells reached 70-90% confluency. Thereafter, trypsin was inactivated by addition of 10 ml of RPMI 1640 medium containing 5% fetal bovine serum. All cells were then transferred and seeded onto 96-well microtiter plates at densities between 5,000 and 30,000 cells per well. Three cell lines were inoculated per plate. The cells were grown in RPMI 1640 supplemented with 5% fetal bovine serum and 2 mM L-glutamine for 24 h at 37° C. to allow stabilization prior to addition of JS-K. A total of 58 human cancer cell lines were used for the broad screening. The stock solution of JS-K in DMSO was serially diluted with the RPMI 1640 medium and added immediately to the microtiter plates to produce five concentrations of JS-K, i.e., 10^−4, 10^−5, 10^−6, 10^−7 and 10^−8 M. JS-K was incubated with cells for 48 h.
At the end of incubation, the cells were fixed in situ by 10% trichloroacetic acid, and washed five times with water and dried. Sulforhodamine B (0.4% in 1% acetic acid), a protein stain binding to basic amino acids of cellular macromolecules, was added to each well, and incubated for 10 min at room temperature. Unbound Sulforhodamine B is removed by washing five times with acetic acid. Then the plates were air-dried. Bound stain is solubilized with Tris buffer, and the optical densities were read at 515 nm. The optical densities generated from Sulforhodamine B staining are a function of cell mass and growth rate (Monks et al., 1991). Thus cells with small mass (e.g., leukemias) or relatively slow division rate (e.g., renal RXF393 and lung cancer HOP-92) were inoculated at the relatively high densities of 20,000-30,000 cells per well, while more rapidly dividing cells (e.g., colon HT29 and HCT-116 cell lines, and lung NCI-H460 cells) were inoculated at 5,000 cells per well. For the suspended leukemia cell subpanel, the cells were fixed to the bottom of the microtiter well by adding cold trichloroacetic acid (final concentration 16%) at the end of the drug-incubation period.
The dose-response curve is created by plotting the % growth against the log10 of the corresponding JS-K concentrations for each cell line by disease subpanel group. Three horizontal lines are provided at the % growth values of 50, 0 and −50, respectively. Thus the molar JS-K concentrations corresponding to points where the curves cross these lines represent the interpolated values that cause 50% growth inhibition (GI50, the JS-K concentration causing a 50% reduction in the net protein increase in control cells), total growth inhibition (TGI, the JS-K concentration causing amount of protein at the end of incubation to be equal to the amount at the beginning) and 50% cell killing (LC50, the JS-K concentration causing a 50% reduction in the protein of treated cells at the end of the drug incubation, compared with that at the beginning, indicating a net loss of cells following drug treatment), respectively.

The test system of a further series is PPC-1 cells. As to the kind of experiment: PPC-1 prostate cancer cell growth in vitro. In kind it is cell-based. The protocol:
Cell Lines and Culture Conditions. HL-60, DLD1, and U937 cells were obtained from ATCC (Rockville, Md.). Meth A cells were from Dr. Wolfram Samlowski (University of Utah, Salt Lake City, Utah). The PPC-1 cell line was provided by Dr. Graeme Bolger (University of Alabama, Birmingham, Ala.). For the cell growth and apoptosis experiments, cells were cultured at a density of 150,000 cells/ml in RPMI-1640 with 10% fetal bovine serum at 37° C. in a 5% CO2 humidified atmosphere. Agents were added at the indicated concentrations 24 h after culture initiation. At the indicated time intervals, cells were harvested and washed twice in phosphate buffered saline (PBS) prior to processing for analysis of growth, differentiation, and apoptosis.
Cell Growth, Differentiation and Apoptosis Assays. The number of viable cells was determined using the MTT assay according to the manufacturer's protocol (Promega, Madison, Wis.) or using a Coulter counter. […] The assay is useful in calorimetric quantitation of cell viability and proliferation. In contrast, cell differentiation was evaluated using Wright and Non-Specific Esterase (NSE) staining of cells collected on microscope slides by cytospin as previously described (Magrinat, G. et al. (1992) Blood 80: 1880-1884). […]

Regarding `CCOC(=O)N1CCN(/[N+]([O-])=N/Oc2ccc([N+](=O)[O-])cc2[N+](=O)[O-])CC1` [JS-K, O^2-(2,4-dinitrophenyl) 1-[(4-ethoxycarbonyl)piperazin-1-yl]diazen-1-ium-1,2-diolate], in series [1], the CC50 is 29.5 µM; the “relative sensitivity to cytostatic and cytotoxic effects” value is given as “most sensitive”. For the same compound, in series [1] (58 human cell lines, 48 h), the GI50 is 1.3 µM and the “mean TGI” value worked out at 6.6 µM. For the same compound, in series [1] (prostate cancer cell lines), the “inhibition against prostate cancer cell lines” value was “moderate inhibition”. Further, in series [1] (some cell lines within the colon, melanoma and breast cancer subpanels), the LC50s entry is “more than 100 μM”. Besides, the cell growth inhibition entry in the series on PPC-1 cells (1, 2, 3, 4 and 5 μM, 3 days) is listed as “potent inhibitor of prostate cancer growth”. Also, in the series on PPC-1 cells (PPC-1), the “IC50 relative to leukemia lines” value was “an order of magnitude greater than those for the two leukemia lines”.

By CC50 is commonly meant the concentration giving 50% cytotoxicity. High values mean better tolerance by the cells, low ones harm at low concentration. One may read the GI50 as the concentration at which growth is held to half of that of the control. Read a low GI50 as greater sensitivity of the cells.
